Read-outs that look alike come from different tables or passages of the source.
Test system: Escherichia coli C 165
Assay: ED100 in mice after intraperitoneal infection, Table 3
Type: in vivo
Details: read-out: effective 100% dose (ED100)
Procedure: In animal experiments on mice, the effective 100% dose (ED100) in mg/Kg was determined for certain compounds of the invention after intraperitoneal infection and subcutaneous (s.c.) or oral (p.o.) administration of the preparation.

Structure (SMILES): CN(C)N=Cc1c(C(=O)O)[n+]([O-])c2ccccc2[n+]1[O-] [Example 14]
- ED100 (C165, oral (p.c. [sic])): 100 mg/kg
- ED100 (C165, sc, s.c.): 50 mg/kg
